Results as given in US9447130B1, “Process for the preparation of dicycloplatin” (Syn-Nat Products Enterprise LLC, priority 2015, dated 2016).

Assays:
[1] = stability of dicycloplatin to heat / hot water (evaporation, slurry); assay type: physicochemical
Procedure: • 1) Dissolved 50.0 mg of carboplatin (135 μmol) in 2.8 mL of water in a 3-mL glass vial at RT. • 2) Added 19.4 mg of 1,1-cyclobutane dicarboxylic acid (135 μmol) into the same vial. • 3) Stirred the suspension at RT to obtain a clear solution. • 4) Transferred the clear solution to a 25-mL round-bottom flask and rotary evaporated at a temperature between 50° C. and 55° C. to obtain white crystal solid. • 5) Air-dried the solid to obtain a product.
(§1) Moreover, in additional polymorph studies of dicycloplatin, it was recognized that the use of shorter aliphatic alcohols (as reported in U.S. Pat. No. 6,699,901) such as methanol, ethanol, isopropanol and butanol led to a significant amount of carboplatin being left in the product because of disproportionation. […] Thus, recrystallization in water was not efficient and was difficult to scale up.

[2] = cited from earlier work
[3] = water solubility of dicycloplatin; assay type: physicochemical; settings: room temperature
Excerpt: as §1

dicycloplatin
thermal stability during evaporation ([1]; evaporation step of the reported process (U.S. Pat. No. 6,699,901)): sensitive to high temperature | stability of a slurry in hot water ([1]; slurry in hot water): partial hydrolysis | recommended Phase II dosage ([2]; DCP-containing chemotherapy): 450 mg/m^2 | bioavailability and stability in vivo ([2]; in vivo, Chinese cancer patients): favorable | water solubility [3]: 40 mg/mL
